Source: PubChem BioAssay (NCI)
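A five-concentration, 48-hour dose response in 96-well plates underlies each endpoint, interpolated linearly between surrounding concentrations. Here, GI50 denotes the concentration required for 50% inhibition of growth. TGI marks complete inhibition of growth.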

Tests used:
Assay in all cases: DTP human tumour cell line panel, 48 h
UACC-62 melanoma = test system: UACC-62 melanoma
SW-620 colon = test system: SW-620 colon
IGROV1 ovarian = test system: IGROV1 ovarian
NCI/ADR-RES ovarian = test system: NCI/ADR-RES ovarian
SK-MEL-5 melanoma = test system: SK-MEL-5 melanoma
LOX IMVI melanoma = test system: LOX IMVI melanoma
T-47D breast = test system: T-47D breast
K-562 leukemia = test system: K-562 leukemia
SF-295 CNS = test system: SF-295 CNS
HCT-116 colon = test system: HCT-116 colon
DU-145 prostate = test system: DU-145 prostate
TK-10 renal = test system: TK-10 renal
RXF 393 renal = test system: RXF 393 renal
CCRF-CEM leukemia = test system: CCRF-CEM leukemia
EKVX NSCLC = test system: EKVX NSCLC
SF-268 CNS = test system: SF-268 CNS
786-0 renal = test system: 786-0 renal
CAKI-1 renal = test system: CAKI-1 renal
RPMI-8226 leukemia = test system: RPMI-8226 leukemia
MOLT-4 leukemia = test system: MOLT-4 leukemia
A549 NSCLC = test system: A549 NSCLC
SNB-19 CNS = test system: SNB-19 CNS
MCF7 breast = test system: MCF7 breast
NCI-H460 lung = test system: NCI-H460 lung
HS 578T breast = test system: HS 578T breast
NCI-H23 lung = test system: NCI-H23 lung
OVCAR-5 ovarian = test system: OVCAR-5 ovarian
SR leukemia = test system: SR leukemia
NCI-H522 lung = test system: NCI-H522 lung
OVCAR-4 ovarian = test system: OVCAR-4 ovarian
KM12 colon = test system: KM12 colon
U251 CNS = test system: U251 CNS
UO-31 renal = test system: UO-31 renal
BT-549 breast = test system: BT-549 breast
ACHN renal = test system: ACHN renal
UACC-257 melanoma = test system: UACC-257 melanoma
MALME-3M melanoma = test system: MALME-3M melanoma
OVCAR-8 ovarian = test system: OVCAR-8 ovarian
MDA-MB-435 = test system: MDA-MB-435
HCT-15 colon = test system: HCT-15 colon
SK-OV-3 ovarian = test system: SK-OV-3 ovarian
SF-539 CNS = test system: SF-539 CNS
MDA-MB-231 breast = test system: MDA-MB-231 breast
HOP-62 NSCLC = test system: HOP-62 NSCLC
M14 melanoma = test system: M14 melanoma
SK-MEL-28 melanoma = test system: SK-MEL-28 melanoma
COLO 205 colon = test system: COLO 205 colon
PC-3 prostate = test system: PC-3 prostate
SN12C renal = test system: SN12C renal
HT29 colon = test system: HT29 colon
OVCAR-3 ovarian = test system: OVCAR-3 ovarian
A498 renal = test system: A498 renal
SK-MEL-2 melanoma = test system: SK-MEL-2 melanoma
HOP-92 NSCLC = test system: HOP-92 NSCLC
HCC-2998 colon = test system: HCC-2998 colon

CC(=O)Oc1cn(-c2ccc(Cl)cc2)nc1C1=NN(C(C)=O)C(c2ccc(F)cc2F)O1 (stereo not given)
GI50 (UACC-62 melanoma): 28.8 µM | TGI (UACC-62 melanoma): 96.3 µM | GI50 (SW-620 colon): 41.4 µM | TGI (SW-620 colon): > 100 µM | GI50 (IGROV1 ovarian): 13.4 µM | TGI (IGROV1 ovarian): 76.2 µM | GI50 (NCI/ADR-RES ovarian): 42.9 µM | TGI (NCI/ADR-RES ovarian): > 100 µM | GI50 (SK-MEL-5 melanoma): 18.4 µM | TGI (SK-MEL-5 melanoma): 38.4 µM | GI50 (LOX IMVI melanoma): 30.1 µM | TGI (LOX IMVI melanoma): > 100 µM | GI50 (T-47D breast): 67.3 µM | TGI (T-47D breast): > 100 µM | GI50 (K-562 leukemia): 30 µM | TGI (K-562 leukemia): > 100 µM | GI50 (SF-295 CNS): 20.2 µM | TGI (SF-295 CNS): 51.3 µM | GI50 (HCT-116 colon): 33.4 µM | TGI (HCT-116 colon): > 100 µM | GI50 (DU-145 prostate): 39.2 µM | TGI (DU-145 prostate): > 100 µM | GI50 (TK-10 renal): 21.1 µM | TGI (TK-10 renal): 61.9 µM | GI50 (RXF 393 renal): 23.9 µM | TGI (RXF 393 renal): > 100 µM | GI50 (CCRF-CEM leukemia): 27.5 µM | TGI (CCRF-CEM leukemia): > 100 µM | GI50 (EKVX NSCLC): 28.5 µM | TGI (EKVX NSCLC): 83 µM | GI50 (SF-268 CNS): 29.6 µM | TGI (SF-268 CNS): > 100 µM | GI50 (786-0 renal): 26.1 µM | TGI (786-0 renal): 70.3 µM | GI50 (CAKI-1 renal): 35.6 µM | TGI (CAKI-1 renal): 79.8 µM | GI50 (RPMI-8226 leukemia): 20.5 µM | TGI (RPMI-8226 leukemia): 54.8 µM | GI50 (MOLT-4 leukemia): 18.5 µM | TGI (MOLT-4 leukemia): 94 µM | GI50 (A549 NSCLC): 33.2 µM | TGI (A549 NSCLC): > 100 µM | GI50 (SNB-19 CNS): 48.7 µM | TGI (SNB-19 CNS): > 100 µM | GI50 (MCF7 breast): 30 µM | TGI (MCF7 breast): > 100 µM | GI50 (NCI-H460 lung): 34.4 µM | TGI (NCI-H460 lung): > 100 µM | GI50 (HS 578T breast): 31.8 µM | TGI (HS 578T breast): 88.8 µM | GI50 (NCI-H23 lung): 41.6 µM | TGI (NCI-H23 lung): > 100 µM | GI50 (OVCAR-5 ovarian): 44.4 µM | TGI (OVCAR-5 ovarian): > 100 µM | GI50 (SR leukemia): 35.8 µM | TGI (SR leukemia): 85.4 µM | GI50 (NCI-H522 lung): 45.6 µM | TGI (NCI-H522 lung): > 100 µM | GI50 (OVCAR-4 ovarian): 74.3 µM | TGI (OVCAR-4 ovarian): > 100 µM | GI50 (KM12 colon): 25.4 µM | TGI (KM12 colon): 84.2 µM | GI50 (U251 CNS): 38.5 µM | TGI (U251 CNS): > 100 µM | GI50 (UO-31 renal): 31.8 µM | TGI (UO-31 renal): > 100 µM | GI50 (BT-549 breast): 19.5 µM | TGI (BT-549 breast): 54.7 µM | GI50 (ACHN renal): 44.3 µM | TGI (ACHN renal): > 100 µM | GI50 (UACC-257 melanoma): 27.2 µM | TGI (UACC-257 melanoma): 81.6 µM | GI50 (MALME-3M melanoma): 14.8 µM | TGI (MALME-3M melanoma): 63.5 µM | GI50 (OVCAR-8 ovarian): 34.6 µM | TGI (OVCAR-8 ovarian): > 100 µM | GI50 (MDA-MB-435): 27.9 µM | TGI (MDA-MB-435): 89.5 µM | GI50 (HCT-15 colon): 32.2 µM | TGI (HCT-15 colon): > 100 µM | GI50 (SK-OV-3 ovarian): 50.4 µM | TGI (SK-OV-3 ovarian): > 100 µM | GI50 (SF-539 CNS): 29.8 µM | TGI (SF-539 CNS): > 100 µM | GI50 (MDA-MB-231 breast): 30.4 µM | TGI (MDA-MB-231 breast): > 100 µM | GI50 (HOP-62 NSCLC): 36.2 µM | TGI (HOP-62 NSCLC): > 100 µM | GI50 (M14 melanoma): 31.4 µM | TGI (M14 melanoma): > 100 µM | GI50 (SK-MEL-28 melanoma): 50.2 µM | TGI (SK-MEL-28 melanoma): > 100 µM | GI50 (COLO 205 colon): 42.7 µM | TGI (COLO 205 colon): > 100 µM | GI50 (PC-3 prostate): 27.9 µM | TGI (PC-3 prostate): > 100 µM | GI50 (SN12C renal): 33.6 µM | TGI (SN12C renal): > 100 µM | GI50 (HT29 colon): 40.1 µM | TGI (HT29 colon): > 100 µM | GI50 (OVCAR-3 ovarian): 19.7 µM | TGI (OVCAR-3 ovarian): 75.9 µM | GI50 (A498 renal): 29.1 µM | TGI (A498 renal): 66.4 µM | GI50 (SK-MEL-2 melanoma): 74 µM | TGI (SK-MEL-2 melanoma): > 100 µM | GI50 (HOP-92 NSCLC): 20.6 µM | TGI (HOP-92 NSCLC): 71.6 µM | GI50 (HCC-2998 colon): 35.7 µM | TGI (HCC-2998 colon): 55.3 µM
